Experimental data: patent EP0768085A1, “ANTIBACTERIAL AGENT” (DAIICHI PHARMACEUTICAL CO., LTD., priority 1994, dated 1996)
≈ marks a conversion by molar mass, not a printed value.

Legend:
Format in all cases: cell-based
[1] = tested on: Pasteurella multocida (Kobe-6); experiment: Antibacterial activity (IC), broth microplate as in Example 4 (Example 6, Table 41); settings: 18 h, origin pig
Protocol: (§1) A suitable amount of a sample was dissolved in dimethylsulfoxide (DMSO), and the resultant solution was diluted with the same amount of sterilized distilled water to prepare a bulk sample of 1,000 µg/ml. Mueller-Hinton broth (product of DIFCO) was dispensed into each well of 96-well microplate. Thereafter, the bulk specimen was added to the first well of a row, and successively diluted (10-fold each time) with sterilized distilled water. Separately, a bacterial cell suspension for the test (Staphylococcus aureus 209-P) which had been cultured in the above-mentioned broth overnight at 37°C was inoculated to each well so that the final inoculation amount of 10^6 CFU/ml was attained. The final concentrations of the samples were 100, 10, and 1 µg/ml.
(§2) The antibacterial action was evaluated by the inhibitory concentration (hereinafter abbreviated as IC) at which propagation of the bacteria cultured at 37°C for 18 hours was inhibited. Inhibition was determined by the turbidity of the medium. The expressions "IC≤100", "≤10", and "≤1" indicate that MIC-equivalent values obtained at the succesive […] dilution of the sample are 100-10 µg/ml, 10-1 µg/ml, and not more than 1 µg/ml, respectively. […] (In the subsequent Examples, the same rule applies correspondingly.) Table 39
In a manner similar to that described in Example 4, antibacterial activity of the invention compound was determined. The bacterium used for the test was Pasteurella Kobe-6 (origin: pig; Pasteurella multocida).

[2] = tested on: Staphylococcus aureus TI-1; experiment: Antibacterial activity (IC), broth microplate as in Example 4 (Example 5, Table 40); settings: TI1, 18 h
Protocol: as §1, §2
In a manner similar to that described in Example 4, antibacterial activity of the invention compound was determined. The bacterium used for the test was Staphylococcus aureus TI-1.

[3] = tested on: Staphylococcus aureus 209-P; experiment: Antibacterial activity (IC), Mueller-Hinton broth, 96-well microplate (Example 4, Table 39); settings: 37°C, 18 hours
Protocol: as §1, §2

[4] = tested on: Staphylococcus aureus (209-P); experiment: Antibacterial activity (IC), agar as in Example 8 (Example 15, Table 48); settings: 18 h
Protocol: as §2
(§3) A suitable amount of a sample was dissolved in dimethylsulfoxide (DMSO), after which the resulting solution was diluted with the same amount of sterilized distilled water to prepare a bulk sample of 1,000 µg/ml. Separately, a bacterial liquid for the test (methicillin-resistant Staphylococcus aureus (MRSA) isolated from humans) which had been cultured in Mueller-Hinton broth (product of DIFCO) was prepared and inoculated to a Mueller-Hinton agar (product of DIFCO) containing the sample so that the final inoculation amount of 10^6 CFU/ml was achieved. The final concentrations of the samples were 100, 10, and 1 µg/ml.
(§4) After culturing at 37°C for 18 hours, the antibacterial activity was evaluated in terms of IC in a manner similar to that described in Example 4.
The bacterium used for the test was Staphylococcus aureus (209-P).

[5] = tested on: methicillin-resistant Staphylococcus aureus (MRSA) from humans; experiment: Antibacterial activity (IC), agar as in Example 8 (Example 19, Table 52); settings: 18 h
Protocol: as §2, §3, §4
In a manner similar to that described in Example 8, antibacterial activity of a variety of ketonitrile derivatives shown in Table 52 was measured. The bacterium used for the test was methicillin-resistant Staphylococcus aureus (MRSA) from humans.

[6] = tested on: Streptococcus aureus (TI-1); experiment: Antibacterial activity (IC), agar as in Example 8 (Example 16, Table 49); settings: 18 h
Protocol: as §2, §3, §4
In a manner similar to that described in Example 8, antibacterial activity of the invention compound was determined. The bacterium used for the test was […] aureus (TI-1).

Enterococcus from fish = experiment: Antibacterial activity (IC), agar as in Example 8, media with 1.5% NaCl, 25°C (Example 20, Tables 53-55); settings: for MIC: Enterococcus Seriolicida SE94-002
Protocol: as §2, §3, §4
(§5) In a manner similar to that described in Example 8, antibacterial activity of a variety of ketonitrile derivatives shown in Tables 53-55 was measured. The bacteria used for the test were Enterococcus and Pasteurella from fish. The culture conditions were such that the media contained 1.5% NaCl, and the culture temperature was 25°C.

Pasteurella from fish = experiment: as above; settings: for MIC: Pasteurella piscicida KP94-02
Protocol: as §2, §3, §4, §5

[7] = tested on: Pasteurella multocida (Kobe-6); experiment: Antibacterial activity (IC), agar as in Example 8 (Example 17, Table 50); settings: 18 h, origin pig
Protocol: as §2, §3, §4
In a manner similar to that described in Example 8, antibacterial activity of the invention compound was determined. The bacterium used for the test was Pasteurella Kobe-6 (origin: pig, Pasteurella multocida).

[8] = Enterococcus Seriolicida KG86050
[9] = Enterococcus Seriolicida MS89060
[10] = Enterococcus Seriolicida MS89064
[11] = Enterococcus Seriolicida MS89066
[12] = Enterococcus Seriolicida MS89068
[13] = Enterococcus Seriolicida SE94-001
[14] = Enterococcus Seriolicida SE94-003
[15] = Enterococcus Seriolicida SE94-004
[16] = Enterococcus Seriolicida SE94-005

| Compound | MIC [4] [µg/mL] | MIC ([5]; MRSA strain 891179) [µg/mL] | MIC ([5]; MRSA strain 891185) [µg/mL] | MIC ([5]; MRSA strain 891187) [µg/mL] | MIC ([5]; MRSA strain 891192) [µg/mL] | MIC ([5]; MRSA strain 900048) [µg/mL] | MIC ([5]; MRSA strain 900056) [µg/mL] | MIC [6] [µg/mL] | IC (Enterococcus from fish; Enterococcus Seriolicida HI) | IC (Enterococcus from fish; [8]) | IC (Enterococcus from fish; [9]) | IC (Enterococcus from fish; [10]) | IC (Enterococcus from fish; [11]) | IC (Enterococcus from fish; [12]) | IC (Enterococcus from fish; [13]) | MIC (Enterococcus from fish) [µg/mL] | IC (Enterococcus from fish; [14]) | IC (Enterococcus from fish; [15]) | IC (Enterococcus from fish; [16]) | MIC (Pasteurella from fish) [µg/mL] | also measured |
| --- | --- | --- | --- | --- | --- | --- | --- | --- | --- | --- | --- | --- | --- | --- | --- | --- | --- | --- | --- | --- | --- |
| CC(Oc1ccc(Oc2ncc(C(F)(F)F)cc2Cl)cc1)C(=O)C(C#N)c1ccc(F)c(F)c1 (stereo not drawn) [compound 27] |  |  |  |  |  |  |  |  |  |  |  |  |  |  |  |  |  |  |  |  | MIC [1]: 10 to 100 µg/mL (≈ 20.1 to 201 µM); MIC [2]: 1 to 10 µg/mL (≈ 2.01 to 20.1 µM); MIC [3]: 1 to 10 µg/mL (≈ 2.01 to 20.1 µM) |
| COc1cc(Oc2ccc(C(F)(F)F)cc2Cl)cc(OC(C)C(=O)C(C#N)c2ccc(Cl)c(Cl)c2)c1 (stereo not drawn) [compound 209] | 1 to 10 (≈ 1.79 to 17.9 µM) | 1 to 10 (≈ 1.79 to 17.9 µM) | 1 to 10 (≈ 1.79 to 17.9 µM) | 1 to 10 (≈ 1.79 to 17.9 µM) | 1 to 10 (≈ 1.79 to 17.9 µM) | 1 to 10 (≈ 1.79 to 17.9 µM) | 1 to 10 (≈ 1.79 to 17.9 µM) | 1 to 10 (≈ 1.79 to 17.9 µM) | ≤10 (10-1 µg/ml) | ≤10 (10-1 µg/ml) | ≤10 (10-1 µg/ml) | ≤10 (10-1 µg/ml) | ≤10 (10-1 µg/ml) | ≤10 (10-1 µg/ml) | ≤10 (10-1 µg/ml) | 1 to 10 (≈ 1.79 to 17.9 µM) | ≤10 (10-1 µg/ml) | ≤10 (10-1 µg/ml) | ≤10 (10-1 µg/ml) | 10 to 100 (≈ 17.9 to 179 µM) | IC (Pasteurella from fish; Pasteurella piscicida KP94-04): ≤100 (MIC-equivalent values obtained at the succesive 2-fold dilution of the sample are 100-10 µg/ml); IC (Pasteurella from fish; Pasteurella piscicida KP94-05): ≤100 (MIC-equivalent values obtained at the succesive 2-fold dilution of the sample are 100-10 µg/ml); IC (Pasteurella from fish; Pasteurella piscicida KP94-06): ≤100 (MIC-equivalent values obtained at the succesive 2-fold dilution of the sample are 100-10 µg/ml); MIC [7]: 1 to 10 µg/mL (≈ 1.79 to 17.9 µM) |
| CC(Oc1cc(Oc2ccc(C(F)(F)F)cc2Cl)cc(Oc2ccc(C(F)(F)F)cc2Cl)c1)C(=O)C(C#N)c1ccc(Cl)c(Cl)c1 (stereo not drawn) [compound 210] | 1 to 10 (≈ 1.38 to 13.8 µM) | 1 to 10 (≈ 1.38 to 13.8 µM) | 1 to 10 (≈ 1.38 to 13.8 µM) | 1 to 10 (≈ 1.38 to 13.8 µM) | 1 to 10 (≈ 1.38 to 13.8 µM) | 1 to 10 (≈ 1.38 to 13.8 µM) | 1 to 10 (≈ 1.38 to 13.8 µM) | 1 to 10 (≈ 1.38 to 13.8 µM) | ≤10 (10-1 µg/ml) | ≤10 (10-1 µg/ml) | ≤10 (10-1 µg/ml) | ≤10 (10-1 µg/ml) | ≤10 (10-1 µg/ml) | ≤10 (10-1 µg/ml) | ≤10 (10-1 µg/ml) | 1 to 10 (≈ 1.38 to 13.8 µM) | ≤10 (10-1 µg/ml) | ≤10 (10-1 µg/ml) | ≤10 (10-1 µg/ml) | 10 to 100 (≈ 13.8 to 138 µM) | IC (Pasteurella from fish; Pasteurella piscicida KP94-04): ≤100 (MIC-equivalent values obtained at the succesive 2-fold dilution of the sample are 100-10 µg/ml); IC (Pasteurella from fish; Pasteurella piscicida KP94-05): ≤100 (MIC-equivalent values obtained at the succesive 2-fold dilution of the sample are 100-10 µg/ml); IC (Pasteurella from fish; Pasteurella piscicida KP94-06): ≤100 (MIC-equivalent values obtained at the succesive 2-fold dilution of the sample are 100-10 µg/ml); MIC [7]: 10 to 100 µg/mL (≈ 13.8 to 138 µM) |
| CC(Oc1cc(Oc2ccc(C(F)(F)F)cc2Cl)cc(Oc2ccc(C(F)(F)F)cc2Cl)c1)C(=O)C(C#N)c1cccc(Br)c1 (stereo not drawn) [compound 211] | 1 to 10 (≈ 1.36 to 13.6 µM) | 1 to 10 (≈ 1.36 to 13.6 µM) | 1 to 10 (≈ 1.36 to 13.6 µM) | 1 to 10 (≈ 1.36 to 13.6 µM) | 1 to 10 (≈ 1.36 to 13.6 µM) | 1 to 10 (≈ 1.36 to 13.6 µM) | 1 to 10 (≈ 1.36 to 13.6 µM) | 1 to 10 (≈ 1.36 to 13.6 µM) | ≤10 (10-1 µg/ml) | ≤10 (10-1 µg/ml) | ≤10 (10-1 µg/ml) | ≤10 (10-1 µg/ml) | ≤10 (10-1 µg/ml) | ≤10 (10-1 µg/ml) | ≤10 (10-1 µg/ml) | 1 to 10 (≈ 1.36 to 13.6 µM) | ≤10 (10-1 µg/ml) | ≤10 (10-1 µg/ml) | ≤10 (10-1 µg/ml) | 10 to 100 (≈ 13.6 to 136 µM) | IC (Pasteurella from fish; Pasteurella piscicida KP94-04): ≤100 (MIC-equivalent values obtained at the succesive 2-fold dilution of the sample are 100-10 µg/ml); IC (Pasteurella from fish; Pasteurella piscicida KP94-05): ≤100 (MIC-equivalent values obtained at the succesive 2-fold dilution of the sample are 100-10 µg/ml); IC (Pasteurella from fish; Pasteurella piscicida KP94-06): ≤100 (MIC-equivalent values obtained at the succesive 2-fold dilution of the sample are 100-10 µg/ml); MIC [7]: 1 to 10 µg/mL (≈ 1.36 to 13.6 µM) |
